# Test results reported in PubChem BioAssay (NCI).
#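 The compound was tested at five concentrations on cells cultured in 96-well plates, with a 48-hour exposure period. At the TGI there is no net growth.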
# Key:
# Assay in all cases: NCI-60 cell line screen, 48 h
# [1] = test system: MDA-N
# [2] = test system: UO-31 renal
# [3] = test system: RPMI-8226 leukemia
# [4] = test system: HOP-62 NSCLC
# [5] = test system: UACC-62 melanoma
# [6] = test system: LOX IMVI melanoma
# [7] = test system: NCI-H226 lung
# [8] = test system: HCC-2998 colon
# [9] = test system: RXF 393 renal
# [10] = test system: HT29 colon
# [11] = test system: HCT-15 colon
# [12] = test system: NCI/ADR-RES ovarian
# [13] = test system: ACHN renal
# [14] = test system: SNB-19 CNS
# [15] = test system: MDA-MB-231 breast
# [16] = test system: SF-539 CNS
# [17] = test system: SK-MEL-5 melanoma
# [18] = test system: SF-295 CNS
# [19] = test system: TK-10 renal
# [20] = test system: MDA-MB-435
# [21] = test system: SK-OV-3 ovarian
# [22] = test system: EKVX NSCLC
# [23] = test system: BT-549 breast
# [24] = test system: OVCAR-3 ovarian
# [25] = test system: MOLT-4 leukemia
# [26] = test system: MCF7 breast
# [27] = test system: HL-60(TB) leukemia
# [28] = test system: PC-3 prostate
# [29] = test system: DU-145 prostate
# [30] = test system: OVCAR-4 ovarian
# [31] = test system: SNB-75 CNS
# [32] = test system: A498 renal
# [33] = test system: COLO 205 colon
# [34] = test system: A549 NSCLC
# [35] = test system: 786-0 renal
# [36] = test system: NCI-H460 lung
# [37] = test system: UACC-257 melanoma
# [38] = test system: SK-MEL-28 melanoma
# [39] = test system: HS 578T breast
# [40] = test system: NCI-H23 lung
# [41] = test system: CAKI-1 renal
# [42] = test system: HCT-116 colon
# [43] = test system: T-47D breast
# [44] = test system: HOP-92 NSCLC
# [45] = test system: SR leukemia
# [46] = test system: OVCAR-5 ovarian
# [47] = test system: IGROV1 ovarian
# [48] = test system: SF-268 CNS
# [49] = test system: SK-MEL-2 melanoma
# [50] = test system: MALME-3M melanoma
# [51] = test system: KM12 colon
# [52] = test system: NCI-H522 lung
# [53] = test system: M14 melanoma
# [54] = test system: K-562 leukemia
# [55] = test system: CCRF-CEM leukemia
# [56] = test system: SN12C renal
# [57] = test system: U251 CNS
# [58] = test system: SW-620 colon
# [59] = test system: OVCAR-8 ovarian
compound,measurement,setting,value
CC(=O)c1c2c(cc3c1CC1(C3)Cc3ccc4c(c3C1=O)CCC4)CCC2 (stereo not given),TGI,[1],> 100 µM
same,TGI,[2],> 100 µM
same,TGI,[3],> 100 µM
same,TGI,[4],> 100 µM
same,TGI,[5],> 100 µM
same,TGI,[6],> 100 µM
same,TGI,[7],> 100 µM
same,TGI,[8],> 100 µM
same,TGI,[9],> 100 µM
same,TGI,[10],> 100 µM
same,TGI,[11],> 100 µM
same,TGI,[12],17.7 µM
same,TGI,[13],> 100 µM
same,TGI,[14],> 100 µM
same,TGI,[15],> 100 µM
same,TGI,[16],> 100 µM
same,TGI,[17],38.5 µM
same,TGI,[18],> 100 µM
same,TGI,[19],> 100 µM
same,TGI,[20],32.8 µM
same,TGI,[21],> 100 µM
same,TGI,[22],96 µM
same,TGI,[23],> 100 µM
same,TGI,[24],> 100 µM
same,TGI,[25],> 100 µM
same,TGI,[26],> 100 µM
same,TGI,[27],15 µM
same,TGI,[28],> 100 µM
same,TGI,[29],> 100 µM
same,TGI,[30],> 100 µM
same,TGI,[31],> 100 µM
same,TGI,[32],> 100 µM
same,TGI,[33],39.3 µM
same,TGI,[34],> 100 µM
same,TGI,[35],> 100 µM
same,TGI,[36],> 100 µM
same,TGI,[37],14.9 µM
same,TGI,[38],> 100 µM
same,TGI,[39],> 100 µM
same,TGI,[40],> 100 µM
same,TGI,[41],> 100 µM
same,TGI,[42],> 100 µM
same,TGI,[43],> 100 µM
same,TGI,[44],83.7 µM
same,TGI,[45],64 µM
same,TGI,[46],> 100 µM
same,TGI,[47],> 100 µM
same,TGI,[48],> 100 µM
same,TGI,[49],> 100 µM
same,TGI,[50],> 100 µM
same,TGI,[51],> 100 µM
same,TGI,[52],9.51 µM
same,TGI,[53],> 100 µM
same,TGI,[54],> 100 µM
same,TGI,[55],> 100 µM
same,TGI,[56],> 100 µM
same,TGI,[57],> 100 µM
same,TGI,[58],> 100 µM
same,TGI,[59],> 100 µM
C[As](C)SCC(NC(=O)CCC(N)C(=O)O)C(=O)NCC(=O)O.Cl.c1ccncc1 (stereo not given),TGI,[1],1.51 µM
same,TGI,[2],1.31 µM
same,TGI,[3],1.56 µM
same,TGI,[4],5.64 µM
same,TGI,[5],1.13 µM
same,TGI,[6],1.02 µM
same,TGI,[7],1.19 µM
same,TGI,[8],0.813 µM
same,TGI,[9],0.398 µM
same,TGI,[11],0.977 µM
same,TGI,[12],9.71 µM
same,TGI,[13],1.1 µM
same,TGI,[14],25.5 µM
same,TGI,[15],0.912 µM
same,TGI,[16],2.09 µM
same,TGI,[17],0.878 µM
same,TGI,[18],12.7 µM
same,TGI,[19],0.595 µM
same,TGI,[20],1.07 µM
same,TGI,[21],> 47.8 µM
same,TGI,[22],3.08 µM
same,TGI,[23],1.57 µM
same,TGI,[24],0.412 µM
same,TGI,[26],1.14 µM
same,TGI,[27],0.878 µM
same,TGI,[28],4 µM
same,TGI,[29],0.556 µM
same,TGI,[30],2.64 µM
same,TGI,[31],14.8 µM
same,TGI,[32],3.44 µM
same,TGI,[33],> 100 µM
same,TGI,[34],5.64 µM
same,TGI,[35],1.3 µM
same,TGI,[36],8.9 µM
same,TGI,[37],2.46 µM
same,TGI,[38],2.01 µM
same,TGI,[39],4.6 µM
same,TGI,[40],2.7 µM
same,TGI,[41],0.652 µM
same,TGI,[42],1.53 µM
same,TGI,[43],1.19 µM
same,TGI,[44],0.763 µM
same,TGI,[45],0.076 µM
same,TGI,[46],6.89 µM
same,TGI,[47],6.18 µM
same,TGI,[48],3.59 µM
same,TGI,[49],1.67 µM
same,TGI,[50],0.119 µM
same,TGI,[51],3.81 µM
same,TGI,[52],0.267 µM
same,TGI,[53],1.12 µM
same,TGI,[55],6.31 µM
same,TGI,[56],2.14 µM
same,TGI,[57],5.58 µM
same,TGI,[58],6.59 µM
same,TGI,[59],0.679 µM
